According to patent US6287813A, “Antibiotic-based gene regulation system” (Cistronics Cell Technology GmbH, priority 1999, dated 2001):

Biological target: T1, PIT/PPIR system (Streptomyces coelicolor, UniProt Q9ADN3)
T1 construct: pMF156/pTWIN in CHO cells, PPIR-SEAP or GFP reporter
T1 sequence (Q9ADN3 1-252): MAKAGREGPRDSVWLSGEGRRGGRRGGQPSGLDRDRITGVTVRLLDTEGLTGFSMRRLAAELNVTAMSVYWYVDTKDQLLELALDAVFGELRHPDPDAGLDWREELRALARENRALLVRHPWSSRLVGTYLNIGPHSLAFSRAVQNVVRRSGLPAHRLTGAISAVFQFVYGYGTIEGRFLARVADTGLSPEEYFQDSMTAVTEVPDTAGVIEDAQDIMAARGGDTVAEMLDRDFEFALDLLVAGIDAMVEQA
Test: SEAP reporter assay, stable CHO-PIT1/CHO-PIT2 transiently transfected with pMF172
Format: cell-based
Method: Chinese hamster ovary cells (CHO-K1, ATCC: CCL 61), Baby hamster kidney cells (BHK-21, ATCC: CRL-8544), and HeLa cells (ATCC: CRL-7923) as well as stable cell lines CHO-PIT1, CHO-PIT2, CHO-TWIN195, CHO-TWIN1108 and CHO-PIT1-SEAP were cultured as described before (Fussenegger et al., 1998, Nat. Biotechnol. 16,468-472) in the presence of appropriate antibiotics: G418 400 μg/ml; zeocin 100 μg/ml. Optimized CaPO4 protocols were used for high efficiency transient transfection of all cell lines (id). Transient transfected cells were routinely analyzed after 48 h for GFP or SEAP expression using fluorescence microscopy and p-nitrophenolphosphate-based light absorbance timecourse, respectively, as described before (Fussenegger et al., 1998, Nat. Biotechnol. 16, 468-472; Berger et al., 1988, Gene 66, 1-10 b). For construction of stable CHO-PIT and CHO-TWIN cell lines, CHO-K1 was cotransfected either with pMF156 or pTWIN1 and pSV2neo carrying the G418 resistance gene. CHO-PIT1-SEAP was constructed by cotransfection of pMF172 and pZeoSV2 (Invitrogen). For assessment of dose-response characteristics of PPIR -regulated gene expression, CHO-PIT1-SEAP were cultured at cell densities of 150,000/ml for 48 at various PI concentrations. The mixed populations were cloned using FACS-mediated single-cell-sorting (FACStar^Plus; Beckton Dickinson). Gel retardation assay were performed as described (Salah-Bey et al., 1995, supra) using Pip purified from an overproducing strain of E. coli. Pip (0.02 pmol) was titrated with a range of antibiotic concentrations in a reaction volume of 20 μl. Protein solutions were pre-incubated at room temperature for 15 min. in the absence or presence of PI or its derivative quinupristin in a buffer containing 10 mM Tris (pH 7.8), 10 mM MgCl2, 300 mM NaCl, 2 mM DTT and 10% glycerol. An EcoRI-HindII PPTR fragment (0.02 pmol) containing three Pip binding sites (radiolabelled using α-^32 P)dATP was added and incubated for 15 min. To minimize nonspecific protein binding and increase protein stability, 2 μg of poly dIdC and 20 μg BSA were included in the incubation mix. Protein-DNA complexes were separated on 5% polyacrylamide,TBE gels and visualized by autoradiography.
Five different sources of pristinamycin were used: The two therapeutic forms Pyostacin™ and Synercid™, pristinamycin discs, and the single compounds pristinamycin I (PI) and pristinamycin II (PII). Pyostacin™ pills (500 mg) were ground in a mortar and solubilized in DMSO or water at a stock concentration of 50 mg/ml. Synercid™ (RP 59500; Lot Nr. CB06253) was provided by Aventis in injection-ready vials containing 500 mg lyophilized antibiotic which was reconstituted in 5 ml of 5% glucose solution and frozen at -20° C. Individual pristinamycin compounds PI and PII (identical to virginiamycin M1 (VM1); Sigma ref. V2753) were solubilized in DMSO at a concentration of 50 mg/ml and kept at -20° C. Antibiotic discs containing 15 μg pristinamycin or virginiamycin (bioMerieux, ref. 54552; bioMerieux, ref. 54612) were soaked in 1 ml cell culture medium at 4i C for up to 24 h. Virginiamycin consists of virginiamnycin S1 (VS1), the PI analogue, and virginiamycin M1, which is identical in structure to PII (Barri re et al., 1994, supra). 2 μg/ml of streptogramin B was routinely used for regulation studies in cell culture. The concentration of individual streptogramin components was calculated based on their fixed 70:30 ratio (w/w; PII/VM1 /dalfopristin: PI/VS1 /quinupristin). For control experiments TET and doxycycline (DOX) were used either as discs (30 μg/disc, bioM.quadrature.rieux ref. 54882 (TET) and ref. 54172 (DOX)) or as powder (Sigma refs. T3383 and D9891).
Table 4: Pristinamycin I- (PI) dependent SEAP production of PIT- (PI-dependent transactivator) expressing stable cell lines CHO-PIT1 and CHO-PIT2 transiently transfected with the SEAP-encoding, PI-responsive reporter plasmid pMF172.
Table 5: Regulation potential of different streptogramins. […]

Substance: pristinamycin I [PI]
- Induction factor (ratio of SEAP activity without PI to SEAP activity with PI) (CHO-PIT1): 13
- SEAP Production (%) (CHO-PIT1 + pMF172, 48 h, 2 μg/ml of group B component, no streptogramin = 100): 8.06 ± 0.05%
- SEAP Production (%) (CHO-PIT1 + pMF172, +PI 2 μg/ml, -PI = 100): 7.50 ± 2.32%
- Induction factor (ratio of SEAP activity without PI to SEAP activity with PI) (CHO-PIT2): 8
- SEAP Production (%) (CHO-PIT2 + pMF172, +PI 2 μg/ml, -PI = 100): 12.7 ± 3.57%
- Reversibility of PI-responsive SEAP regulation (CHO-PIT derivatives, repeated cycles of addition and withdrawal): fully reversible
